Test results reported in US6270979A (priority 1998, dated 2001).
Entries after “also recorded” stand apart in the source; their conditions may differ. Structures can show the parent of a compound that is named as a salt. Where two headings read alike, the source gives them in different places.

Key:
[1] = target: opioid μ receptor (Homo sapiens, UniProt P35372); format: cell-based
[2] = target: T1, μ opioid receptor (Rattus norvegicus, UniProt P33535); details: added acutely, μ and EEμ receptor transfected HEK293 cells
[3] = target: epitope-tagged μ opioid receptor (EE-μR) (Rattus norvegicus, UniProt P33535); format: cell-based
[4] = target: T1, μ opioid receptor; assay: Receptor recycling through endocytic vesicles; format: cell-based; set-up: expressed in transfected cells
[5] = test system: opioid μ receptor; format: cell-based, human
[6] = test system: Male ICR mice; details: mouse, in vivo
[7] = test system: PKC; details: known; cited from earlier work
[8] = test system: Mice; format: in vivo
[9] = test system: PKA; details: known; cited from earlier work
[10] = test system: cAMP phosphodiesterase; details: generally recognized; Beavo et al.; cited from earlier work
[11] = test system: muscarinic m1 receptor mutant m1-E360A; format: cell-based
[12] = test system: D2 receptor (long splice isoform); assay: D2 receptor cAMP assay in stably transfected HEK293 cells; format: cell-based; details: for negative antagonism at D2 receptor: preliminary, stably transfected HEK293 cells, quinpirole as agonist
[13] = test system: opioid μ receptor; details: prior knowledge; cited from earlier work

opioid μ receptor (Homo sapiens, UniProt P35372), sequence (P35372 whole entry): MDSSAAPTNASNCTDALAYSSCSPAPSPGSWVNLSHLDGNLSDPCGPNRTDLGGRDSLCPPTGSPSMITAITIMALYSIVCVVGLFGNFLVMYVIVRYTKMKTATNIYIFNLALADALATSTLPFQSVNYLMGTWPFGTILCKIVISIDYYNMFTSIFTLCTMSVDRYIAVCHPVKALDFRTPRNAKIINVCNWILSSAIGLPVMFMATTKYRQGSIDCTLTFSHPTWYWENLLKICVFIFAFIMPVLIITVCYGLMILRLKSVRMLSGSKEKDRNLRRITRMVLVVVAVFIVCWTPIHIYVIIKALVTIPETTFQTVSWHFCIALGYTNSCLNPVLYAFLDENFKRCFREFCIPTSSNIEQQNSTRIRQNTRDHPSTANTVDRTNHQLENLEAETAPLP
epitope-tagged μ opioid receptor (EE-μR), sequence (P33535 whole entry): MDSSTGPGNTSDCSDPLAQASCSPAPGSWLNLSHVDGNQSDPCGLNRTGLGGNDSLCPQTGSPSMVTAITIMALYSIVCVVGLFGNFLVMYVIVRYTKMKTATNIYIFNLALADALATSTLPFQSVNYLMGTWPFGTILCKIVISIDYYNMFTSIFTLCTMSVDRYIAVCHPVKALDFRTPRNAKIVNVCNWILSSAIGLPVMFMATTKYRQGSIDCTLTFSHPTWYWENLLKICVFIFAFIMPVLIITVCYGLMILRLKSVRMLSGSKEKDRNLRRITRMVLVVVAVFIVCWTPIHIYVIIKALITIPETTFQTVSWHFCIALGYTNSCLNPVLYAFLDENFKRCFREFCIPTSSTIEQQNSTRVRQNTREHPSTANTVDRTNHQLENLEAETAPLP
T1 sequence (P33535 whole entry): as above

## CC(C)C[C@@H](NC(=O)[C@H](Cc1ccccc1)NC(=O)CNC(=O)[C@@H](C)NC(=O)[C@@H](N)Cc1ccc(O)cc1)C(=O)O [DADLE]
[1]
  classification of opioid drug (agonist / neutral / negative antagonist): full agonists and are either as effective if not more so than morphine

## C[C@@H](NC(=O)[C@@H](N)Cc1ccc(O)cc1)C(=O)NCC(=O)N(C)[C@@H](Cc1ccccc1)C(=O)NCCO [DAMGO]
[2]
  signaling, potency and efficacy relative to morphine: slightly more potent and efficacious than morphine
[1]
  classification of opioid drug (agonist / neutral / negative antagonist): full agonists and are either as effective if not more so than morphine
[3]
  receptor phosphorylation, potency and efficacy relative to morphine: slightly more potent and efficacious than morphine
[4]
  receptor recycling through endocytic vesicles: induced massive receptor recycling through endocytic vesicles

## CC1CNCCN1S(=O)(=O)c1cccc2cnccc12.Cl.Cl (centres unmarked) [H7, 1-(5-isoquinolinesulfonyl)-2-methylpiperazine dihydrochloride]
[5]
  effect on acute depression of cAMP levels by morphine: did not prevent the acute depression of cAMP levels by morphine
  effect on spontaneous cAMP overshoot induced by morphine pretreatment: had some effects on the spontaneous cAMP overshoot
[5]; dihydrochloride
  effect on naloxone cAMP overshoot / formation of μ* when added with morphine pretreatment: abolished the naloxone-induced cAMP overshoot; also recorded: completely prevents the formation of μ* receptors
  reversal of naloxone cAMP overshoot / μ* activity when added after morphine pretreatment: rapidly reverses μ* activity; also recorded: completely reversed the naloxone cAMP overshoot
[6]
  effect on gross behavior of the animals: without affecting gross behavior of the animals
  effect on naloxone induced withdrawal jumping: strongly suppressed the number of naloxone precipitated jumps
[3]; dihydrochloride
  effect on μ receptor (μ*) phosphorylation: strongly inhibits μ receptor phosphorylation; also recorded: inhibited μ* receptor phosphorylation
[7]
  protein kinase inhibition PKC: known to inhibit several protein kinases including PKA and PKC
[8]; mouse, in vivo
  analgesia of second morphine dose, after H7: 90±10%
  effect on morphine antinociception: without affecting gross behavior of the animals or morphine antinociception
[8]; mouse, in vivo, dihydrochloride
  reversal of morphine tolerance: fully reversed morphine tolerance; also recorded: completely reversed tolerance; also recorded: reverse morphine tolerance and dependence in mice
[9]
  protein kinase inhibition PKA: known to inhibit several protein kinases including PKA and PKC

## Cl.Cl.NCCNS(=O)(=O)c1cccc2cnccc12 [H9, N-(2-aminoethyl)-5-isoquinolinesulfonamide dihydrochloride]
[5]
  effect on naloxone cAMP overshoot / formation of μ* when added with morphine pretreatment: capable of preventing formation of the constitutively active μ receptor state

## N=C(N)NCCNS(=O)(=O)c1cccc2cnccc12 [HA-1004, N(2-guanidinoethyl)-5-isoquinolinesulfonamide hydrochloride]
[5]
  effect on naloxone cAMP overshoot / formation of μ* when added with morphine pretreatment: capable of preventing formation of the constitutively active μ receptor state

## CC(C)Cn1c(=O)n(C)c(=O)c2[nH]cnc21 [IBMX, 3-isobutyl-1-methyl-xanthine]
[5]
  effect on naloxone cAMP overshoot / formation of μ* when added with morphine pretreatment: suppresses μ* formation; also recorded: capable of preventing formation of the constitutively active μ receptor state
[3]
  effect on μ receptor (μ*) phosphorylation: suppressed μ receptor phosphorylation as observed for H7; also recorded: μ receptor kinase inhibitor; also recorded: inhibited μ* receptor phosphorylation
[10]
  cAMP phosphodiesterase inhibition: cAMP phosphodiesterase inhibitor

## C=CCN1CC[C@]23c4c5ccc(O)c4O[C@H]2[C@@H](O)C=C[C@H]3[C@H]1C5 [Nalorphine]
[1]
  classification of opioid drug (agonist / neutral / negative antagonist): neutral antagonists
  effect on cAMP levels / constitutive activity in morphine pretreated cells: no significant effect on cAMP levels in dependent cells

## CN1[C@@H]2CC[C@H]1C[C@@H](OC(=O)C(CO)c1ccccc1)C2 (some centres unmarked) [atropine]
[11]
  effect on m1-E360A basal activity: decreasing effects on m1-E360A basal activity

## COC[C@@H]([C@H](O)[C@H](O)C(=O)NCC[C@H](C)c1nc(/C=C/C[C@@H]2O[C@]3(C[C@@H](O)[C@@H]2C)O[C@H]([C@H](C[C@H](O)[C@H](C)[C@H](O)[C@H](C)/C=C(C)/C(C)=C/C=C/C(C)=C\C#N)OC)[C@H](OP(=O)(O)O)C3(C)C)co1)N(C)C [calyculin A]
[11]; HEK293 cells
  effect on m1-E360A basal activity: enhanced the basal activity

## O=C(CCCN1CCC(O)(c2ccc(Cl)cc2)CC1)c1ccc(F)cc1 [haloperidol]
[12]
  negative antagonism at D2 receptor: some degree of negative antagonism

## CN1CC[C@]23c4c5ccc(O)c4O[C@H]2[C@@H](O)C=C[C@H]3[C@H]1C5 [morphine]
[8]; 10 mg/kg morphine sulfate 5 hours after 100 mg/kg, 30 minutes after saline
  analgesia of second morphine dose, saline control: 22±14%

## C=CCN1CC[C@]23c4c5ccc(O)c4O[C@H]2C(=O)CC[C@@]3(O)[C@H]1C5 [naloxone]
[6]
  reversal of morphine dependence: does not reverse the dependent state in vivo
  withdrawal jumps: 77±20 jumps

## C=C1[C@@H](O)[C@@H]2O[C@]3(CC[C@H](/C=C/[C@@H](C)[C@@H]4CC(C)=C[C@@]5(O[C@H](C[C@@](C)(O)C(=O)O)CC[C@H]5O)O4)O3)CC[C@H]2O[C@@H]1[C@@H](O)C[C@H](C)[C@H]1O[C@@]2(CCCCO2)CC[C@H]1C [okadaic acid]
[5]
  effect of phosphatase inhibitor on enhancing μ*: ineffective in enhancing μ*

## CN1[C@@H]2C[C@@H](OC(=O)[C@H](CO)c3ccccc3)C[C@H]1[C@@H]1O[C@@H]12 [scopolamine]
[11]
  classification at m1-E360A: negative antagonists
  effect on m1-E360A basal activity: decreasing effects on m1-E360A basal activity

## O=C(CCCN1CCC2(CC1)C(=O)NCN2c1ccccc1)c1ccc(F)cc1 [spiperone]
[12]; incubation in absence of agonist, relative to control
  effect on cAMP levels in absence of agonist: decreased cAMP levels relative to control
[12]
  negative antagonism at D2 receptor: some degree of negative antagonism

## CCN1CCCC1CNC(=O)c1cc(S(N)(=O)=O)ccc1OC (centres unmarked) [sulpiride]
[12]
  negative antagonism at D2 receptor: some degree of negative antagonism

## OCCN1CCN(CCCN2c3ccccc3Sc3ccc(C(F)(F)F)cc32)CC1 [thuphenazine]
[12]
  negative antagonism at D2 receptor: some degree of negative antagonism

## CN1CCN(CCCN2c3ccccc3Sc3ccc(C(F)(F)F)cc32)CC1 [trifluoperatine]
[12]
  negative antagonism at D2 receptor: some degree of negative antagonism

## D-Phe-Cys-Tyr-D-Trp-Arg-Thr-Pen-Thr-NH2 [CTOP]
[5]
  effect on acute depression of cAMP levels by morphine: block the acute effects of morphine; also recorded: reversed the reduction of the cAMP level caused by morphine
[1]
  classification of opioid drug (agonist / neutral / negative antagonist): neutral (null) antagonist; also recorded: neutral antagonists
  effect on cAMP levels / constitutive activity in morphine pretreated cells: not to reverse the constitutive activity of the μ receptor state; also recorded: does not act as an inverse agonist; also recorded: no effect on the constitutively active μ receptor state; also recorded: do not affect cAMP levels; also recorded: no significant effect on cAMP levels in dependent cells
  effect on naloxone cAMP overshoot when combined with naloxone: block the inverse agonist effects of naloxone; also recorded: Reversal of the naloxone cAMP overshoot
[13]
  blockade of acute effects of morphine (previously known): fully block the acute effects of morphine

## D-Phe-Cys-Tyr-D-Trp-Arg-Thr-Pen-ThrNH2 [CTAP]
[6]
  withdrawal jumps: 32±12 jumps
